According to patent US6881719B2, “β-turn peptidomimetic cyclic compounds” (McGill University, priority 2000, dated 2005):
Several values for one entry are separate records, joined by “and”; a condition that tells them apart may be missing. Equal entries are not always repeated. No end group written: not given here.

Columns and labels:
[1] = target: T1, NIH3T3 fibroblasts expressing TrkA (Homo sapiens, UniProt P04629); assay: Cell survival (MTT), NIH-TrkA; assay type: cell-based; settings: 72 hours;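 note: 100% equals survival with optimal NGF at 1 nM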
T1 construct: expressed in transfected cells; host or cells: NIH3T3 fibroblasts
T1 sequence (P04629 33-796): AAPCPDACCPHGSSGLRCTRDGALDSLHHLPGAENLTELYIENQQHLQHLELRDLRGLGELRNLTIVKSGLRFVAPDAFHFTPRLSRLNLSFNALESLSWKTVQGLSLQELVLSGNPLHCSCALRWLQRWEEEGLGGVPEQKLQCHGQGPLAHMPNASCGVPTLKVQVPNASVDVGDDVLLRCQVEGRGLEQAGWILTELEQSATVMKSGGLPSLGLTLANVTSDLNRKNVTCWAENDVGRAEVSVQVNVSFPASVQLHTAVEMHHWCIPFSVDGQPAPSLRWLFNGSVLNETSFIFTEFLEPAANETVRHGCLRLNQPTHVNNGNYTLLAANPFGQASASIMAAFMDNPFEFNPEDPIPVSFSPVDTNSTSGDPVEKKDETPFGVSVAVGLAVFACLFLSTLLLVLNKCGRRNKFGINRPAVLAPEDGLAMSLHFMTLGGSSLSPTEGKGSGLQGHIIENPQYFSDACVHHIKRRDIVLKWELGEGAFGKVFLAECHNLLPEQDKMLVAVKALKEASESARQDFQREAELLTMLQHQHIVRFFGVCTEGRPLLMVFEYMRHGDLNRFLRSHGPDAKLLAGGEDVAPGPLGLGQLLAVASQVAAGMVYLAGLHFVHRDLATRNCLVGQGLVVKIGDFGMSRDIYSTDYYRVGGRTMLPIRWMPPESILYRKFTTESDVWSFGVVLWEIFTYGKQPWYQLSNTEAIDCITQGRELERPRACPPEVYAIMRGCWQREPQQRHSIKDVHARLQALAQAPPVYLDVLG
Description: The 4-3.6 cells are B104 cells stably transfected with human trkA cDNA, and express equal levels of p75 and TrkA (TrkA+ p75+). For screening agents that activate or antagonize TrkC receptors, NIH3T3 fibroblasts were stably transfected with human TrkC cDNA. […] For screening agents that activate or antagonize TrkA receptors, NIH3T3 fibroblasts were stably transfected with human TrkA cDNA.
(§1) Cell lines: 5,000 cells/well in protein-free media (PFHM-II, GIBCO, Toronto) containing 0.2% bovine serum albumin (BSA) (Crystalline fraction V, Sigma, St. Louis, Mo.) were seeded in 96 well plates (Falcon, Mississauga, Ontario). The cultures were untreated, or treated with the indicated test or control ligands. Cell viability was quantitated using the MTT assay after 56-72 hours of culture. […] The OD of untreated cells were subtracted.

[2] = target: T2, NIH3T3 fibroblasts expressing TrkC (Homo sapiens, UniProt Q16288); assay: Cell survival (MTT), NIH-TrkC; assay type: cell-based; settings: 72 hours
T2 construct: expressed in transfected cells; host or cells: NIH3T3 fibroblasts
T2 sequence (Q16288 32-839): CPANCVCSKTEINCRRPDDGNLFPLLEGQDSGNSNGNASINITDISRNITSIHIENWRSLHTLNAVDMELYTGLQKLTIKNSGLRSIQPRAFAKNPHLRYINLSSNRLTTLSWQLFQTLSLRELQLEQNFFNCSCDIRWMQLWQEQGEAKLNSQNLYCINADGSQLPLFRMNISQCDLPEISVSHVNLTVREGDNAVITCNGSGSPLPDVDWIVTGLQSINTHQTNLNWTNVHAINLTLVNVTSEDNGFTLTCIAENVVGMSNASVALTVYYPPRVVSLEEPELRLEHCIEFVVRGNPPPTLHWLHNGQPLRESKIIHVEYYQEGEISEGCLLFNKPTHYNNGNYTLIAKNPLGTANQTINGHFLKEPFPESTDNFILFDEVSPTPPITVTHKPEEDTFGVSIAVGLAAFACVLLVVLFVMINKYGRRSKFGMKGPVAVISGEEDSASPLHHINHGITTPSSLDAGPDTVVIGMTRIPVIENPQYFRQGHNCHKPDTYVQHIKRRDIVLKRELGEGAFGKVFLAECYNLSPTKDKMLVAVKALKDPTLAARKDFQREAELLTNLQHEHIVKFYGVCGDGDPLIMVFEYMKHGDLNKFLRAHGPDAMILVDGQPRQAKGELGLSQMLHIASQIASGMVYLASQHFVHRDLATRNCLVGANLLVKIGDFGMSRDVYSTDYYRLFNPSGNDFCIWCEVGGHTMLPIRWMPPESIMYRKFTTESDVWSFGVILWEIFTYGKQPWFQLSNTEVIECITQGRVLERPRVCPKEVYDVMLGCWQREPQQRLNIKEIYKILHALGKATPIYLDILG
Description: (§2) The 4-3.6 cells are B104 cells stably transfected with human trkA cDNA, and express equal levels of p75 and TrkA (TrkA+ p75+). For screening agents that activate or antagonize TrkC receptors, NIH3T3 fibroblasts were stably transfected with human TrkC cDNA. These cells respond to the ligand NT-3. For screening agents that activate or antagonize TrkA receptors, NIH3T3 fibroblasts were stably transfected with human TrkA cDNA. These cells respond to the ligand NGF.
as §1, with “subtracted. The higher optical density of untreated primary cultures is likely due to cellular heterogeneity and to endogenous production of limiting amounts of growth factors.” for “subtracted.”

[3] = system: wild type NIH3T3 fibroblasts; assay: Cell survival (MTT), NIH wt; assay type: cell-based; settings: 72 hours
Description: as §2
as §1, with “subtracted. The higher optical density of untreated primary cultures is likely due to cellular heterogeneity and to endogenous production of limiting amounts of growth factors.” for “subtracted.”

[4] = target: human TrkA expressed on transfected cells (4-3.6 cells; NIH3T3-TrkA cells) (human) (UniProt P04629); assay: FACScan, 4-3.6 cells (p75+ TrkA+), avidin-FITC
human TrkA expressed on transfected cells (4-3.6 cells; NIH3T3-TrkA cells) (human), sequence (P04629 33-796): as the sequence (P04629 33-796) above

[5] = target: TrkA on primary rat embryonic neurons (DRG and septal cultures) (rat) (UniProt P35739); assay: cell-based or functional assay
TrkA on primary rat embryonic neurons (DRG and septal cultures) (rat), sequence (P35739 33-799): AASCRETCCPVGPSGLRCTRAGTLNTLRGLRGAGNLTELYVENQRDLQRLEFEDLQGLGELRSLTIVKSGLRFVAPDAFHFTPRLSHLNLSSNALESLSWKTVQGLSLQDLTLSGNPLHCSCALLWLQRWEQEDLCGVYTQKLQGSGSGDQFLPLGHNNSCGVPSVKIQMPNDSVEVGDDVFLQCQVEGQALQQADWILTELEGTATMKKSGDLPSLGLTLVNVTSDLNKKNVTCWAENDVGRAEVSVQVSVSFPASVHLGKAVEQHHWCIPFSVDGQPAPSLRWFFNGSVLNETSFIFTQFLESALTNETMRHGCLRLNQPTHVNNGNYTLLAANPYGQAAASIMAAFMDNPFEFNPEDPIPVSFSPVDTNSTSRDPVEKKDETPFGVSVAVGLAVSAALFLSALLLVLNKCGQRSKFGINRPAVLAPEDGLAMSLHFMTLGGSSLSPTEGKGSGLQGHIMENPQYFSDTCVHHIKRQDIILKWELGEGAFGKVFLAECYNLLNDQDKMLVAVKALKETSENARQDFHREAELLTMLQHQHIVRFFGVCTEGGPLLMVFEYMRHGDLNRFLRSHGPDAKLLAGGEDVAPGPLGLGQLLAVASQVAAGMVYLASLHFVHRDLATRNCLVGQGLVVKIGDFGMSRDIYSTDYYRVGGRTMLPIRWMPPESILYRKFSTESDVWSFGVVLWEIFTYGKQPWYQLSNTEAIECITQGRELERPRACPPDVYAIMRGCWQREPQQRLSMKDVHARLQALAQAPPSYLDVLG

[6] = target: human TrkC expressed on transfected NIH3T3 fibroblasts (human) (UniProt Q16288); assay: cell-based or functional assay
human TrkC expressed on transfected NIH3T3 fibroblasts (human), sequence (Q16288 32-839): as the sequence (Q16288 32-839) above

[7] = target: TrkA on primary rat embryonic neurons (DRG and septal cultures) (rat, UniProt P35739 33-799); assay: cell-based or functional assay
TrkA on primary rat embryonic neurons (DRG and septal cultures), sequence (P35739 33-799): as the sequence (P35739 33-799) above

CCC(C)[C@@H]1NC(=O)C(CC(=O)O)NC(=O)c2cc([N+](=O)[O-])cc(I)c2OCCC(C(N)=O)NC1=O (stereo partly shown) [P23]
NIH-TrkA % Protection ([1]; agent 10 μM + 10 pM NGF): 52 ± 3% | NIH-TrkA % Protection ([1]; agent 10 μM + 10 pM NT-3): 21 ± 3% | NIH-TrkA % Protection ([1]; agent 10 μM alone): 15 ± 2% | NIH-TrkC % Protection ([2]; agent 10 μM + 10 pM NGF): 11 ± 5% | NIH-TrkC % Protection ([2]; agent 10 μM + 10 pM NT-3): 51 ± 7% | NIH-TrkC % Protection ([2]; agent 10 μM alone): 8 ± 2% | NIH wt % Protection ([3]; agent 10 μM + 10 pM NGF): 1 ± 3% | NIH wt % Protection ([3]; agent 10 μM + 10 pM NT-3): 1 ± 3% | NIH wt % Protection ([3]; agent 10 μM alone): 0 ± 3%

CC(O)[C@@H]1NC(=O)[C@H](CCCCN)NC(=O)c2cc([N+](=O)[O-])cc(I)c2OCCC(C(N)=O)NC1=O (stereo partly shown) [P27]
NIH-TrkA % Protection ([1]; agent 10 μM + 10 pM NT-3): 4 ± 1% | NIH-TrkA % Protection ([1]; agent 10 μM alone): 5 ± 2% | NIH-TrkC % Protection ([2]; agent 10 μM + 10 pM NT-3): 62 ± 6% | NIH-TrkC % Protection ([2]; agent 10 μM alone): 13 ± 3% | NIH wt % Protection ([3]; agent 10 μM + 10 pM NT-3): 5 ± 4% | NIH wt % Protection ([3]; agent 10 μM alone): −2 ± 4%

CC(O)[C@@H]1NC(=O)c2cc([N+](=O)[O-])cc(I)c2NCCC(C(N)=O)NC(=O)CNC1=O (stereo partly shown) [P42]
NIH-TrkA % Protection ([1]; agent 10 μM + 10 pM NGF): 9 ± 4% | NIH-TrkA % Protection ([1]; agent 10 μM + 1 nM NGF): 68% and 68 ± 5% | NIH-TrkA % Protection ([1]; agent 10 μM alone): 5 ± 2% | NIH wt % Protection ([3]; agent 10 μM alone): 0 ± 3%

NC(=O)C[C@@H]1NC(=O)[C@H](CCC(=O)O)NC(=O)c2cc([N+](=O)[O-])cc(I)c2NCCC(C(N)=O)NC1=O (stereo partly shown) [P43]
NIH-TrkA % Protection ([1]; agent 10 μM + 10 pM NGF): 12 ± 3% | NIH-TrkA % Protection ([1]; agent 10 μM + 1 nM NGF): 55% and 55 ± 7% | NIH-TrkA % Protection ([1]; agent 10 μM alone): 4 ± 3% | NIH wt % Protection ([3]; agent 10 μM alone): 2 ± 4%

NT-3: Neurotrophin-3, prefers binding to TrkC receptors
NIH-TrkA % Protection ([1]; 10 pM NT-3): 3 ± 2% | NIH-TrkA % Protection ([1]; 1 nM NT-3): 17 ± 3% | NIH-TrkC % Protection ([2]; 10 pM NT-3): 29±1% | NIH-TrkC % Protection ([2]; 1 nM NT-3): 100 ± 2% | NIH wt % Protection ([3]; 10 pM NT-3): 1 ± 4% | NIH wt % Protection ([3]; 1 nM NT-3): −2 ± 5%

control-biotin (an inactive biotinylated peptide)
MCF [4]: 10 MCF

nerve growth factor (NGF) (ligand)
% Protection (MTT, rat DRG neurons), NGF 20 pM [5]: 9% | % Protection (MTT, rat DRG neurons), NGF 500 pM [5]: 68% | ChAT Activity (rat septal neurons), 10 pM NGF (pmol Ach/min/well) [5]: 0.42 | ChAT Activity (rat septal neurons), 400 pM NGF (pmol Ach/min/well) [5]: 0.72 | Optical Density (MTT survival, rat DRG neurons), NGF 20 pM [5]: 316 OD | Optical Density (MTT survival, rat DRG neurons), NGF 500 pM [5]: 0.535 OD | Optical Density (MTT survival, rat DRG neurons), NGF 1 nM [5]: 823 OD | % Protection (MTT, NIH-TrkC), 10 pM NGF [6]: 2% | % Protection (MTT, NIH-TrkC), 1 nM NGF [6]: 5%

B1: C59 (EKCys), inactive analog of D3 (peptide)
peptide: Glu-Lys-Cys
modifications: also: further groups not given here
ChAT Fold Increase, 20 µM C59 control [7]: 1 fold
